Experimental data as given in patent US9863955B2, “AMPK activator screening method, and AMPK activator” (KYORIN PHARMACEUTICAL CO., LTD., priority 2012, dated 2018).

Experiments:
[1] = target: T1, interaction between PHB1 and AMPK (Homo sapiens, UniProt P35232); assay: GST pull down assay of GST-PHB1 protein and AMPK in the presence of compound A; format: binding; conditions: compound A final concentration 10 μM, 3 hours at 4° C., Western blotting (FIG. 7)
T1 construct: purchased Abnova Corp. (GST-PHB1); Calbiochem (AMPK)
T1 sequence (P35232 1-272): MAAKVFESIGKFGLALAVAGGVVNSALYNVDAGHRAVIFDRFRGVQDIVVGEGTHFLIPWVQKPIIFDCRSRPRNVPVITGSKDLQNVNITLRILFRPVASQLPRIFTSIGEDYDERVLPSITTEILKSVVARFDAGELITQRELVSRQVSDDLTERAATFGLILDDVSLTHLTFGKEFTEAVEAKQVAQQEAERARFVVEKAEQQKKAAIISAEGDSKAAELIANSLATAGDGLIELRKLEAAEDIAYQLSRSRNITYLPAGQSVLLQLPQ
Procedure: Specifically, Glutathione Sepharose 4 Fast Flow carrier (GE Healthcare) was bound to each of commercially available GST protein, a GST fusion PHB1 protein (hereinafter also referred to as GST-PHB1 protein) (Abnova Corp.) and a GST fusion PHB2 protein (hereinafter also referred to as the GST-PHB2 protein) (Abnova Corp.) to obtain GST carrier-protein complexes. Each of the GST carrier-protein complexes and AMPK (Calbiochem) were incubated in a NET buffer (0.5% NP-40, 50 mM Tris-HCl pH 7.5, 50 mM sodium chloride, and 5 mM EDTA) for 3 hours at 4° C. for binding. After washing the resultant with a NET buffer, a sample buffer (50 mM Tris-HCl pH 6.8, 2% SDS, 10% glycerin, 1% β-mercaptoethanol, 12.5 mM EDTA, and 0.02% bromophenol blue) was added thereto to prepare a sample. The thus obtained sample was separated by SDS-PAGE, the resultant was transferred to a PVDF membrane and subjected to Western blotting using anti-AMPKα and anti-GST antibodies, so as to detect whether or not AMPK was bound to GST protein, GST-PHB1 protein or GST-PHB2 protein bound to Gluthathione Sepharose to be pulled down.
GST-PHB1 protein (500 ng) was bound to Glutathione Sepharose 4 Fast Flow (10 μL) to obtain a GST carrier-protein complex. […]

PHB2 = assay: Western blotting of HepG2 cells cultured with compound A: PHB2; format: cell-based, human; conditions: various final concentrations, 3 hours culture (FIG. 8)
Procedure: (§1) Compound A was added to a HepG2 cell culture system to various final concentrations, and after culturing the resultant for 3 hours, the cells were lysed in a lysis buffer to obtain a cell extract. The thus obtained cell extract was used for performing SDS-PAGE so as to separate proteins contained in the extract in accordance with their sizes, and the resultant was transferred to a PVDF membrane to detect PHB1, PHB2, AMPKα and phosphorylated AMPKα by Western blotting.

PHB1 = assay: Western blotting of HepG2 cells cultured with compound A: PHB1; format: cell-based, human; conditions: various final concentrations, 3 hours culture (FIG. 8)
Procedure: as §1

ACC = assay: Western blotting of HepG2 cells cultured with compound A: ACC; format: cell-based, human; conditions: various final concentrations, 3 hours culture (FIG. 8)
AMPKα = assay: Western blotting of HepG2 cells cultured with compound A: AMPKα; format: cell-based, human; conditions: various final concentrations, 3 hours culture (FIG. 8)
Procedure: as §1

human PHB1 = assay: Real-time PCR of HepG2 cells transfected with siRNA: PHB1; format: cell-based; conditions: 72 hours after transfection (FIG. 1)
Text: (§2) Human hepatoma cell line HepG2 cells were transfected with siRNA (Stealth RNAi, Invitrogen) against human PHB1 or human PHB2 using Lipofectamine RNAiMAX (Invitrogen).
(§3) Seventy-two hours after the transfection, RNA was extracted from siRNA transfected cells using RNeasy Mini Kit (Qiagen). The thus obtained RNA was reverse transcribed into a cDNA using High Capacity cDNA Reverse Transcription Kit (Applied Biosystems). The resultant cDNA was subjected to real-time PCR by TaqMan Gene Expression Assays (Applied Biosystems, PHB1: Hs_00855044_gl, PHB2: Hs_00200720_ml) using 7500 Fast Real-Time PCR system (Applied Biosystems), and thus, the influence of the knockdown of PHB1 or PHB2 on the amount of gene expression was detected.

human PHB2 = assay: Real-time PCR of HepG2 cells transfected with siRNA: PHB2; format: cell-based; conditions: 72 hours after transfection (FIG. 1)
Text: as §2, §3

**Q.** With `CCCCN1C(=O)CN(Cc2ccc(OC)c(C(=O)NCc3ccc(Oc4ccc(F)cc4)cc3)c2)C1=O` [compound A, 5(2,4-dioxo-3-butylimidazolidin-1-yl)methyl-2-methoxy-N-[4-(4-fluorophenoxy)phenylmethyl]benzamide] as the compound, how does the “AMPKα pulled down by GST-PHB1 protein” value [1] read?
**A.** remarkably decreased

**Q.** And the “amount of PHB2” value (PHB2)?
**A.** does not remarkably affect

**Q.** What about the “amount of PHB1” value (PHB1) of the same compound?
**A.** does not remarkably affect

**Q.** What about the “amount of ACC” value (ACC) of the same compound?
**A.** does not remarkably affect

**Q.** What about the “level of phosphorylated ACC” value (ACC) of the same compound?
**A.** increased by compound A in a concentration-dependent manner

**Q.** What about the “amount of AMPKα” value (AMPKα) of the same compound?
**A.** does not remarkably affect

**Q.** What about the “level of phosphorylated AMPKα” value (AMPKα) of the same compound?
**A.** increased by compound A in a concentration-dependent manner

**Q.** With “siPHB1: siRNA (Stealth RNAi, Invitrogen) against human PHB1, SEQ ID NO: 1 and 2 (chain 1 UUGGCAAUCAGCUCAGCUGCCUUGG; chain 2 CCAAGGCAGCUGAGCUGAUUGCCAA; Stealth RNAi (Invitrogen), modifications not given here)” as the compound, how does the “amount of transcription of PHB1” value (human PHB1) read?
**A.** specifically depressed

**Q.** “siPHB2: siRNA (Stealth RNAi, Invitrogen) against human PHB2, SEQ ID NO: 3 and 4 (chain 1 UACGAUUCUGUGAUGUGGCGAUCGU; chain 2 ACGAUCGCCACAUCACAGAAUCGUA; Stealth RNAi (Invitrogen), modifications not given here)” was tested. Which “amount of transcription of PHB2” value (human PHB2) did it give?
**A.** specifically depressed
